From PMC10613275 (Scientific Reports, 2023)
“Also recorded” adds a separate entry of the source. Read-outs that look alike come from different tables or passages of the source. Marks after values point to notes of the source that are not given here.

Assays:
[1] = Cytotoxicity, cell viability (resazurin assay), HeLa9903; format: cell-based, human; conditions: human, HeLa9903 cells, all concentrations up to 100 µM, vs vehicle control, read-out: Relative viability
[2] = tested on: HeLa9903 cells; test: as above; format: cell-based, human; conditions: 1 nm–100 µM, 1 day
[3] = tested on: CHO-K1 cells; format: cell-based, Chinese hamster; conditions: for MoA (mean fluorescence values over area of the nuclei): lilial 100 µM, PC 30 μM
Description: Briefly, HeLa and CHO-K1 cells were seeded at a concentration of 1 × 10^5 cells/ml into the 96-well plates. CHO-K1 cells were used for comparison with HPRT test. HeLa cells were recommended by the manufacturer of the kit. After 24 h, cells were rinsed with PBS and cultivation medium (“Cell lines” Section) without ATB, with a reduced content of FBS (5%) was added. 30 µM valinomycin (in DMSO) was used as a positive control Samples were applied in the presence of non-toxic sample concentrations, i.e. 100 µM either with or without S9 mix. […] Cells were photographed using a fluorescence microscope (Olympus IX83); filters: DAPI (500 ms) and Cy3 (500 ms). Bioimage analysis in ImageJ software was performed as described previously.

[4] = tested on: RPTEC/TERT1 cells; test: Nephrotoxicity, RT-qPCR of kidney damage biomarkers; format: cell-based, human; conditions: up to 100 µM
Description: RPTEC/TERT1 cells were seeded at a concentration of 2 × 10^5 cells/ml in ProxUp2 medium into 60 mm Petri dishes. After 24 h, the cells were washed with PBS and […] metabolites (100 μM) were applied in fresh ProxUp2 medium. The cells were incubated with samples for 48 h, after which the cells were washed with PBS and dishes were frozen in - 160 °C. The RNA was isolated using RNeasy Plus Mini Kit (Qiagen, Hilden, Germany). The RNA concentration and purity was determined with NanoDrop One (ThermoFisher Scientific) spectrophotometr. The cDNA synthesis was performed from 0.1 μg of total RNA with an iScript Reverse Transcription Supermix (Bio-Rad, Hercules, California, USA). Quantitative real-time PCR (qPCR) was performed using the qPCR Bio-Rad C100 Touch System (Bio-Rad) with a 96-well block. The reaction mixture consisted of 1 μl of specific 20 × PrimePCR Assay (Bio-Rad), 10 μl of 2 × SsoAdvance Universal Supermix (Bio-Rad), 2 μl of cDNA sample, 7 μl of nuclease-free water. The final reaction volume was 20 μl. […] Cycling parameters were: initial denaturation at 95 °C for 2 min, followed by 40 cycles of 95 °C for 5 s and 60 °C for 30 s. Fluorescence values were acquired after each extension phase. Samples were analyzed in triplicate, and samples with a standard deviation of duplicates > 0.2 Ct were re-analyzed. A non-template control containing nuclease-free water instead of cDNA as well as non-RT control containing purified RNA without reverse transcription was used. The real-time PCR study followed the MIQE guidelines. Relative transcript levels of the estimated genes in the cell lines were compared using the software CFX Maestro Software 2.3 (Bio-Rad).

[5] = tested on: NF-κB signal pathway; test: NF-κB signal pathway activation, luciferase reporter in transfected HEK293; format: cell-based, human; conditions: HEK293, 100 µM (Table 1), 5 h
Excerpt: […]. HEK293 cells were transiently transfected with reporter plasmid pGL4.32 (luc2P/NF-κB-RE/Hygro, Promega Corporation, Madison, Wisconsin, USA) or pGL4.37 (luc2P/NRF2-ARE/Hygro) using FuGENE (Promega Corporation). Plasmid pEGFP-C1 carrying the gene for green fluorescent protein (GFP) was co-transfected with the reporter plasmids as a normalization plasmid enabling normalization of the signal to transfection level. […] To test the activation of NRF2-ARE pathway, tert-butyl hydroquinone (TBHQ, in the range from 4 to 63 µM) as a positive control or samples (50 µM) were incubated with the cells for 18 h. The fluorescence (488/513 nm) was determined using SpectraMax i3x Multi-Mode Microplate Reader (Molecular Devices, San Jose, California, USA). Subsequent quantification of luciferase activity was performed using the Bright-Glo™ Luciferase Assay System (Promega Corporation) according to the manufacturer’s instructions.

[6] = Metabolic activation with rat liver S9, GC/HRMS; format: in vitro ADME; conditions: 37 °C, 1 h; to lysmerylic acid and p-tert-butylbenzoic acid as major metabolites
Description: Metabolic activation was verified using GC/HRMS as described above.

[7] = tested on: NIH3T3 cells; conditions: NIH3T3 ref 2; cited from earlier work
[8] = tested on: Hek293 cells; conditions: Hek293 ref 2; cited from earlier work
[9] = tested on: Chinese hamster lung and human colonic epithelial cells; parameters: method as in PMID 32461162, PMID 24239523; conditions: in vitro ref 3, 5; cited from earlier work
[10] = tested on: mouse lymphoma cells; parameters: method as in earlier work; conditions: cited from earlier work
[11] = tested on: S. typhimurium and E. coli, CHO and Chinese hamster V79 cells; conditions: cited from earlier work

## CC(C=O)Cc1ccc(C(C)(C)C)cc1 (stereo not shown) [Lilial, 3-(4-(tert-butyl)phenyl)-2-methylpropanal]
[1]
  viability at 1 day: > 80%
[2]
  Cytotoxicity result: Non toxic up to 100 µM
[3]; CHO-K1, 100 µM
  Genotoxicity result: Inconclusive
[3]; CHO-K1, 4h_S9
  MoA (mean fluorescence values over area of the nuclei): 1.10*
[3]; CHO-K1, 4 h, without S9
  MoA (mean fluorescence values over area of the nuclei): 0.52
[3]; CHO-K1, 24 h
  MoA (mean fluorescence values over area of the nuclei): 0.99
[4]
  Nephrotoxicity result: Non nephrotoxic
[4]; listed as lilial
  Nephrotoxicity result: not toxic; also recorded: neither lilial, nor its metabolites, demonstrated nephrotoxic activity
[5]
  NF-κB signal pathway activation result: Non activator
[5]; listed as lilial
  NF-κB signal pathway activation result: neither the NF-kB (Fig. 7) nor NRF2 (Fig. 8) signalling pathway was activated
[6]
  Metabolism in presence of Arochlor-induced rat liver S9 fractions: almost completely metabolised
[7]
  Effect on cell viability: no negative effect
[8]
  Effect on cell viability: no negative effect
[9]
  Mutagenicity in mammalian cell gene mutation assay: not mutagenic
[10]
  Mouse lymphoma assay outcome: negative outcome
[11]
  Genotoxic and mutagenic potential: No genotoxic and mutagenic potential
